# Assays:
# [1] = system: Mu-opioid receptor; assay: Opioid sensor (cpGFP in Loop3 of the Mu-opioid receptor) response in HEK293T cells; type: cell-based, human
# [2] = biological target: Beta2AR with a cpGFP integrated into the third intracellular loop (Homo sapiens, UniProt P07550)
# [3] = biological target: 5HT2A receptor (Homo sapiens, UniProt P28223, DEL264-288/DEL297-315/INS291[…]/INS295[…]/K293E/S316L); assay: 5HT2A receptor sensor with universal module 2, fluorescence response; type: cell-based; settings: universal module 2 in 5HT2A receptor
# 5HT2A receptor, sequence (P28223 with tags, fused parts or gaps with the stated changes): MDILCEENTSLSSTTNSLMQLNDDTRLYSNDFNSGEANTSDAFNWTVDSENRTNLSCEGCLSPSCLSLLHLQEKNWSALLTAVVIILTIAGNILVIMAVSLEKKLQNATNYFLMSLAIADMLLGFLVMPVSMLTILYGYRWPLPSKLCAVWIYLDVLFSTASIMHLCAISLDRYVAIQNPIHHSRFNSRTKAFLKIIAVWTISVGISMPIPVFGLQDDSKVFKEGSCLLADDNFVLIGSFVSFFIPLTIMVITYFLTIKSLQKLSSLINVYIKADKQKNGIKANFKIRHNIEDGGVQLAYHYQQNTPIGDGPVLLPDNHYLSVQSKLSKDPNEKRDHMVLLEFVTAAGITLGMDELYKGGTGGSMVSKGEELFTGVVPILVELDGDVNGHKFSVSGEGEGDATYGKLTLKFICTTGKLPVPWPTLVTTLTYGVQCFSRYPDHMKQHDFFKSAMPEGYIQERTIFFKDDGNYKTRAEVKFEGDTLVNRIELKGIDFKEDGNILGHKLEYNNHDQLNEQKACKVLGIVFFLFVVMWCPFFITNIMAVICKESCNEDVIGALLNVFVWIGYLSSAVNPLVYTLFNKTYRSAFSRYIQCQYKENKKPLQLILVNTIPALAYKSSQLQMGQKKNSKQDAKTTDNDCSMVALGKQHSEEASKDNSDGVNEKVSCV
# [4] = biological target: T1, B2AR (Homo sapiens, UniProt P07550, C265Q/D251A/E249T/E27Q/F240D/F264D/G16R/G238K/G257K/INS236[…]/INS254[…]/K235L/K263H/N244L/Q243V/Q247F/Q250A/R253I/R259E/R260Y/S246E/S261N/S262N/V242M); type: cell-based; settings: universal module 1 in B2AR; 10 μM
# T1 construct: expressed in transfected cells
# [5] = biological target: B2AR (Homo sapiens, UniProt P07550, C265Q/D251A/E249T/E27Q/F240D/F264D/G16R/G238K/G257K/INS233[…]/INS254[…]/K232L/K235P/K263H/L230S/N244L/Q229L/Q231S/Q243V/Q247F/Q250A/R253I/R259E/R260Y/S236N/S246E/S261N/S262N/V242M); assay: B2AR sensor with universal module 2, fluorescence response; type: cell-based; settings: inserted into EAKR-deleted third intracellular loop residues-KEHK of B2AR
compound,measurement,setting,value
NCCc1ccc(O)c(O)c1 [Dopamine],specific response of the sensor,"[2]; 50 μM, non-Beta2AR ligands",did not detect any specific response
NCCc1c[nH]c2ccc(O)cc12 [Serotonin],ΔF/F response,[3],~30%
NC[C@H](O)c1ccc(O)c(O)c1 [norepinephrine],τ½ON,"[2]; time constant of association, saturating conditions (1 μM drug)",29.62 s
same,τ½OFF,"[2]; time constant of dissociation, saturating conditions (1 μM drug)",106.91 s
same,ΔF/F,[4],150%
LSSLI-cpGFP-NHDQL [Universal module 2],ΔF/F,[5],100%
